This passage reports thermal stability z-score results from the supplement of paper PMC12463676, “Small-molecule dissolution of stress granules by redox modulation benefits ALS models” (Nature Chemical Biology, 2025).

Compound in one experiment: O=[As]([O-])(O)O.[K+] [potassium arsenate]
Put plainly: thermal stability z-score vs DMSO; higher = more thermally stabilized by treatment. As to conditions: HeLa; arsenate concentration 1 mM. The method, then: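 Cellular thermal proteome profiling in HeLa cells treated with 1 mM arsenate for 1 h (DMSO pretreatment), heated to ten temperatures (37-66.3 °C). Soluble protein was quantified by TMT mass spectrometry relative to DMSO controls; the thermal stability score was transformed to a z-score; mean of n = 3 experiments.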

Compound in the next experiment: NC(=O)CCCCC1CCSS1 [lipoamide]
Described as above. The note with it: HeLa, lipoamide concentration 100 µM. The method, then:
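Cellular thermal proteome profiling in HeLa cells. Cells were treated with 100 µM lipoamide for 1 h, with or without 1 mM arsenate for a further 1 h, then heated to ten temperatures (37-66.3 °C), and soluble protein was quantified by TMT mass spectrometry relative to 0.1% DMSO controls. The thermal stability score (sum of log2 fold changes minus the abundance score) was transformed to a z-score; mean of n = 3 experiments.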

Where [1] appears, read: arsenate co-treatment: 1 mM arsenate 1 h.
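Also: each temperature applied for 3 min, abundance score taken as mean log2 fold change at the two lowest temperatures, z-score obtained by mean subtraction and division by SD.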

Sequence of UniProt Q96C01 (Q96C01 whole entry): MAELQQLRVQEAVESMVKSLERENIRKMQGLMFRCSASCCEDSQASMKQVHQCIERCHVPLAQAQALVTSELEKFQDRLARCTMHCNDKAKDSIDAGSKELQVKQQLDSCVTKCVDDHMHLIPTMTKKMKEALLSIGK
Sequence of UniProt Q96P53 (Q96P53 whole entry): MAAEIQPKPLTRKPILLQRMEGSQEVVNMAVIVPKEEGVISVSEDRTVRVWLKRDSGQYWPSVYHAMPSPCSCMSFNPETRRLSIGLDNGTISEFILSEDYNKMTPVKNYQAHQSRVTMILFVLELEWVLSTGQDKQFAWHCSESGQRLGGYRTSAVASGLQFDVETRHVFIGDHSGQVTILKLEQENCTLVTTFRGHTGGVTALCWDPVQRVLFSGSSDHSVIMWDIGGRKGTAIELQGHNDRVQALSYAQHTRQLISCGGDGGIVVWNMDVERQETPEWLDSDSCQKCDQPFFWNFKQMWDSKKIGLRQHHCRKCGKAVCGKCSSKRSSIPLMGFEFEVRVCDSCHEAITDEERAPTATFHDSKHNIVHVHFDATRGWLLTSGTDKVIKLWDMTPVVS
Sequence of UniProt Q9UJ83 (Q9UJ83 whole entry): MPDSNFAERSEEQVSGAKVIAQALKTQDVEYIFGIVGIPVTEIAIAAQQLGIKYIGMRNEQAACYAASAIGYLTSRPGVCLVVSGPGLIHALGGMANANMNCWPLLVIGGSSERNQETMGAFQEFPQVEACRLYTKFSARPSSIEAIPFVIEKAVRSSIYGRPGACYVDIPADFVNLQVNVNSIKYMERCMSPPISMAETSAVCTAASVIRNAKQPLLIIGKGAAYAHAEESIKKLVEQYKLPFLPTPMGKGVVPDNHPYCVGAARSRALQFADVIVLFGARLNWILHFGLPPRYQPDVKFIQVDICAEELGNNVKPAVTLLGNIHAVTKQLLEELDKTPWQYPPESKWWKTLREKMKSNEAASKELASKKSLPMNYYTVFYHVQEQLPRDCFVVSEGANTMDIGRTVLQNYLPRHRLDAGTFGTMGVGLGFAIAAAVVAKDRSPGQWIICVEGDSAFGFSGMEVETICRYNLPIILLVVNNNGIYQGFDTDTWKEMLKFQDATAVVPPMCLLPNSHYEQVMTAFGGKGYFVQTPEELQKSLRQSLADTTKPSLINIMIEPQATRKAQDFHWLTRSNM
Sequence of UniProt O60294 (O60294 whole entry): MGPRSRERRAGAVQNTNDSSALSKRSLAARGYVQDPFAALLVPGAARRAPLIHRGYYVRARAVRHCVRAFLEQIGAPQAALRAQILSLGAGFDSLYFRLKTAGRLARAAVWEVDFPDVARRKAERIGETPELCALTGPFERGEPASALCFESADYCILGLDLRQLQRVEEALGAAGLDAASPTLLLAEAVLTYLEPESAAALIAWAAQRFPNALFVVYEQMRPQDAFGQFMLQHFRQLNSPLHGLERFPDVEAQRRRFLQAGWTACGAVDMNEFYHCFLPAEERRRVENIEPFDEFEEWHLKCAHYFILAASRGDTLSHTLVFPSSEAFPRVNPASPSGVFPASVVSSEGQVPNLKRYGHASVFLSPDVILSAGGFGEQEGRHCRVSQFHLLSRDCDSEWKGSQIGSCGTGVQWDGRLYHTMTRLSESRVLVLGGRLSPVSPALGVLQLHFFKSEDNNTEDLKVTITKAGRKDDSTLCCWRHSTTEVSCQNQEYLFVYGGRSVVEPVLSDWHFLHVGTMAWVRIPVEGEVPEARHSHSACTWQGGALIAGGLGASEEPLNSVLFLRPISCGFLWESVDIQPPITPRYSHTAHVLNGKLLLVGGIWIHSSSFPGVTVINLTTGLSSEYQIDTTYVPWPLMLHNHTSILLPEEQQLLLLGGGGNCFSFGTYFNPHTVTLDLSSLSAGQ
Sequence of UniProt Q9UPR0 (Q9UPR0 whole entry): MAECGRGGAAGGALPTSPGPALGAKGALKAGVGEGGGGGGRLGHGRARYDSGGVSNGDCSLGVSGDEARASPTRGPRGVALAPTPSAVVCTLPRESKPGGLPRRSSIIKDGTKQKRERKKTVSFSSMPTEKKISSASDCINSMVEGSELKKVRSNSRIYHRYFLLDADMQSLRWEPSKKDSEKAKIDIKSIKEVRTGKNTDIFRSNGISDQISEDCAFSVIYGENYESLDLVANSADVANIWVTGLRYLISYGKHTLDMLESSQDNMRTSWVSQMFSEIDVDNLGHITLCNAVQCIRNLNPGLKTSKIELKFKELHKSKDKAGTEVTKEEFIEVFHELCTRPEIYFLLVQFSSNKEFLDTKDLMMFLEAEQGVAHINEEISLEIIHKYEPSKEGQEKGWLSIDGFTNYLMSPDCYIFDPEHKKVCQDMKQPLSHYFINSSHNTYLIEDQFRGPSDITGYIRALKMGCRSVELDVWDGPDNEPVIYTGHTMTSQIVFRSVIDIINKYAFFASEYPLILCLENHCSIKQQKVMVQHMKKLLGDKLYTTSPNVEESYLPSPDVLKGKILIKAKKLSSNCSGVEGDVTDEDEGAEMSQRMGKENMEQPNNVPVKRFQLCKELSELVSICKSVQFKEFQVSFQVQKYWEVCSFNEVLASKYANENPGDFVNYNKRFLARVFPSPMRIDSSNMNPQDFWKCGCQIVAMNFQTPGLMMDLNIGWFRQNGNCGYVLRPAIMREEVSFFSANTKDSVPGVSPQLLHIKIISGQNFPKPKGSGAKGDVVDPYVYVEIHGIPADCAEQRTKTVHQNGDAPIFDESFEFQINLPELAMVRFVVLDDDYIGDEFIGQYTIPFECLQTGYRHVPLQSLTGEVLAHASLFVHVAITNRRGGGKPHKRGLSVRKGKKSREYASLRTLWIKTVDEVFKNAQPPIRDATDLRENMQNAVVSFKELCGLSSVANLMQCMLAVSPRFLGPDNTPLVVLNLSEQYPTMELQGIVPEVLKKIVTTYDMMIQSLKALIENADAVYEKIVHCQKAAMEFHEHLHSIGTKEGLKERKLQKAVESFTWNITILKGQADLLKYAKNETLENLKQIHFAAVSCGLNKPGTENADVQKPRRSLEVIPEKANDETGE
Sequence of UniProt Q9H9Y4 (Q9H9Y4 whole entry): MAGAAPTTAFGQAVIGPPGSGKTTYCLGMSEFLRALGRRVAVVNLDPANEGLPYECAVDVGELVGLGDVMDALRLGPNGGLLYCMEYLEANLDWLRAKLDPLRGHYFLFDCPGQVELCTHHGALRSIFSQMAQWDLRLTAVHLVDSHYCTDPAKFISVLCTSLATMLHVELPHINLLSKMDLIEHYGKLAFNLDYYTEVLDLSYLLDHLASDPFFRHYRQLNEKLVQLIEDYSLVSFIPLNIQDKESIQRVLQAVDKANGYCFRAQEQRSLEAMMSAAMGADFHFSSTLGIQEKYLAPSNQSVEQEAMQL
Sequence of UniProt P31350 (P31350 whole entry): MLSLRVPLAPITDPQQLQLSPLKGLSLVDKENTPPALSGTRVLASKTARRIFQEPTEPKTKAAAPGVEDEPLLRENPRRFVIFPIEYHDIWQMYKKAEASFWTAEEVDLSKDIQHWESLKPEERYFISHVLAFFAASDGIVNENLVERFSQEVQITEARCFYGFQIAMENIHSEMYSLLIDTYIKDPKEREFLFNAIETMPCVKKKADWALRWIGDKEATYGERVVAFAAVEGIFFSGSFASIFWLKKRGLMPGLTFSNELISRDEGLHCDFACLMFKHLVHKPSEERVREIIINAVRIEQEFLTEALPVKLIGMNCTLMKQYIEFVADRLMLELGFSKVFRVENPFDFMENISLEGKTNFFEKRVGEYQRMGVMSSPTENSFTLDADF
Sequence of UniProt P04406 (P04406 whole entry, looked up): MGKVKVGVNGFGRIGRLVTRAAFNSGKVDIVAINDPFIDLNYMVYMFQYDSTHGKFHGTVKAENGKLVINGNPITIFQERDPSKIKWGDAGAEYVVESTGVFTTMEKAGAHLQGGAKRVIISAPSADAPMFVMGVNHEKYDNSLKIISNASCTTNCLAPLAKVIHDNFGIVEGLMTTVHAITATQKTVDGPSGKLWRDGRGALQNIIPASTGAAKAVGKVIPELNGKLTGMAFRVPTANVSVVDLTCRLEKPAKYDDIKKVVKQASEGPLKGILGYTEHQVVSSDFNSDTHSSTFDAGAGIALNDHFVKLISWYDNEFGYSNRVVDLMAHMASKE
Sequence of UniProt Q9NPE2 (Q9NPE2 whole entry): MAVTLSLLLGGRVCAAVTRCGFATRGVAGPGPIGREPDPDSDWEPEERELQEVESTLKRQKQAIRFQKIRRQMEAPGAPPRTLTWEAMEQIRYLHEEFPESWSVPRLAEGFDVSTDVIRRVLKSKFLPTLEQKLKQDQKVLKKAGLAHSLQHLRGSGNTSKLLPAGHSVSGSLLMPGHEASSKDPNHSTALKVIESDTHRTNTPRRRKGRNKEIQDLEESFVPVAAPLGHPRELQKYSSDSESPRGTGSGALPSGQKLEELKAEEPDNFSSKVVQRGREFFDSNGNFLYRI
Sequence of UniProt Q17RY6 (Q17RY6 whole entry): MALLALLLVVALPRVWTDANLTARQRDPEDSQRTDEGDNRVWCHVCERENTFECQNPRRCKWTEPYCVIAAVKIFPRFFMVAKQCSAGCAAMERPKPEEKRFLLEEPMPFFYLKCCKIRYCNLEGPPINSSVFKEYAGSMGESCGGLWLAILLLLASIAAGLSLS
Sequence of UniProt Q9BQE5 (Q9BQE5 whole entry): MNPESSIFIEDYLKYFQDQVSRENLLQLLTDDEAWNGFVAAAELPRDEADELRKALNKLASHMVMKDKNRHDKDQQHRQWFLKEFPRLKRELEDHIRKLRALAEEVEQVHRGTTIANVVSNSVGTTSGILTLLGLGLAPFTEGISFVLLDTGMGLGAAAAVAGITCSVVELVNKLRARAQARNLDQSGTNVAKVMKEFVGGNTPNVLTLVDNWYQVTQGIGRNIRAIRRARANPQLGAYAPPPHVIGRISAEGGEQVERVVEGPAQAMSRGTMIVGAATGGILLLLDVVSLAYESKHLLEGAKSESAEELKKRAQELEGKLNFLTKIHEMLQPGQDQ
Sequence of UniProt Q9NRR8 (Q9NRR8 whole entry): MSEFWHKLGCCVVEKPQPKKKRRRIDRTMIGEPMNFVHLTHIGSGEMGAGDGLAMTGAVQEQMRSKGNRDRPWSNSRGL

Take TTK (UniProt P33981): the thermal stability z-score with potassium arsenate was 0.742; with lipoamide (setting [1]) it was -0.85; with lipoamide (arsenate co-treatment: none), -0.0774.

In the case of DDI2 (UniProt Q5TDH0), the figures for the thermal stability z-score with potassium arsenate, in the experiment with lipoamide (setting [1]) and with lipoamide (arsenate co-treatment: none) were -0.217, -0.174 and -0.209, respectively.

On to DBN1 (UniProt Q16643), for which the results for the thermal stability z-score with potassium arsenate, with lipoamide (setting [1]) and with lipoamide (arsenate co-treatment: none) were -0.684, 0.625 and -0.407, respectively.

LCMT2 (UniProt O60294): the figures for the thermal stability z-score with potassium arsenate, in the experiment with lipoamide (setting [1]) and with lipoamide (arsenate co-treatment: none) were -0.332, -0.107 and -0.78, respectively.

For PKN2 (UniProt Q16513), the values for the thermal stability z-score in the experiment with potassium arsenate, with lipoamide (setting [1]) and in the experiment with lipoamide (arsenate co-treatment: none) were 0.144, 0.0683 and 0.467, respectively.

For IMPA2 (UniProt O14732), the thermal stability z-score in the experiment with potassium arsenate is -0.728; with lipoamide (setting [1]) it was 0.737; in the experiment with lipoamide (arsenate co-treatment: none) it was 0.182.

Consider BCL9L (UniProt Q86UU0), for which the thermal stability z-score with potassium arsenate was -0.128; in the experiment with lipoamide (setting [1]), 0.0577; with lipoamide (arsenate co-treatment: none), 0.096.

Take NBEAL1 (UniProt Q6ZS30): the thermal stability z-score with potassium arsenate was -0.119; with lipoamide (setting [1]) it was 0.108; with lipoamide (arsenate co-treatment: none), -0.0292.

For the target UTP20 (UniProt O75691), the thermal stability z-score with potassium arsenate is -0.134; with lipoamide (setting [1]) it was -0.113; with lipoamide (arsenate co-treatment: none), -0.168.

As to SMG7 (UniProt Q92540), the figures for the thermal stability z-score with potassium arsenate, with lipoamide (setting [1]) and with lipoamide (arsenate co-treatment: none) were -0.0408, -0.0753 and -0.0219, respectively.

As to FAM136A (UniProt Q96C01), the thermal stability z-score in the experiment with potassium arsenate is -1.98; with lipoamide (setting [1]), 1.12; with lipoamide (arsenate co-treatment: none), 0.665.

Take GPN2 (UniProt Q9H9Y4): the values for the thermal stability z-score in the experiment with potassium arsenate, with lipoamide (setting [1]) and with lipoamide (arsenate co-treatment: none) were -0.222, 0.0332 and 0.0213, respectively.

Turning to BCAS3 (UniProt Q9H6U6), the thermal stability z-score with potassium arsenate was -0.0972; with lipoamide (setting [1]), -0.0897; with lipoamide (arsenate co-treatment: none), 0.561.

For TMEM173 (UniProt Q86WV6), the thermal stability z-score is -0.0763 with potassium arsenate, 0.0822 with lipoamide (setting [1]) and -0.0914 in the experiment with lipoamide (arsenate co-treatment: none).

For WDR41 (UniProt Q9HAD4), the thermal stability z-score is -0.285 in the experiment with potassium arsenate, -0.212 with lipoamide (setting [1]) and -0.267 with lipoamide (arsenate co-treatment: none).

For the target GAPDH (UniProt P04406), the thermal stability z-score was -1.5 with potassium arsenate, -1.1 with lipoamide (setting [1]) and -0.00491 in the experiment with lipoamide (arsenate co-treatment: none).

With RRM2 (UniProt P31350), the thermal stability z-score in the experiment with potassium arsenate came out at 0.674; with lipoamide (setting [1]), 0.385; in the experiment with lipoamide (arsenate co-treatment: none) it was 0.731.

RPL21 (UniProt P46778): the thermal stability z-score with potassium arsenate was -1.03; in the experiment with lipoamide (setting [1]), 0.61; with lipoamide (arsenate co-treatment: none) it was 0.308.

For GNL2 (UniProt Q13823), the thermal stability z-score in the experiment with potassium arsenate was -1.8; in the experiment with lipoamide (setting [1]), -0.195; with lipoamide (arsenate co-treatment: none), -0.0312.

As to SCAP (UniProt Q12770), the thermal stability z-score was -0.473 in the experiment with potassium arsenate, -1.13 in the experiment with lipoamide (setting [1]) and 0.0662 with lipoamide (arsenate co-treatment: none).

Turning to BRIX1 (UniProt Q8TDN6), the thermal stability z-score with potassium arsenate is 1.3; with lipoamide (setting [1]), 0.442; in the experiment with lipoamide (arsenate co-treatment: none), -0.0247.

In the case of TMF1 (UniProt P82094), the figures for the thermal stability z-score with potassium arsenate, with lipoamide (setting [1]) and with lipoamide (arsenate co-treatment: none) were -0.126, -0.551 and -0.475, respectively.

Take APOL2 (UniProt Q9BQE5): the thermal stability z-score is 0.589 in the experiment with potassium arsenate, -0.399 in the experiment with lipoamide (setting [1]) and 0.15 with lipoamide (arsenate co-treatment: none).

As for APH1A (UniProt Q96BI3), the thermal stability z-score was -0.696 in the experiment with potassium arsenate, 0.28 with lipoamide (setting [1]) and -0.0861 with lipoamide (arsenate co-treatment: none).

Take PDHX (UniProt O00330): the thermal stability z-score with potassium arsenate is -6.67; with lipoamide (setting [1]), -0.515; with lipoamide (arsenate co-treatment: none) it was -0.468.

On to NGRN (UniProt Q9NPE2), for which the thermal stability z-score with potassium arsenate was -0.378; with lipoamide (setting [1]) it was 0.637; in the experiment with lipoamide (arsenate co-treatment: none), 0.0666.

For the target HMGB2 (UniProt P26583), the thermal stability z-score in the experiment with potassium arsenate worked out at 0.175; with lipoamide (setting [1]), 0.55; in the experiment with lipoamide (arsenate co-treatment: none), 0.687.

In the case of USP9X (UniProt Q93008), the thermal stability z-score in the experiment with potassium arsenate was 0.115; with lipoamide (setting [1]) it was -0.133; in the experiment with lipoamide (arsenate co-treatment: none) it was -0.258.

For HEXB (UniProt P07686), the results for the thermal stability z-score in the experiment with potassium arsenate, in the experiment with lipoamide (setting [1]) and in the experiment with lipoamide (arsenate co-treatment: none) were 0.149, -0.421 and -0.254, respectively.

Regarding WDFY2 (UniProt Q96P53), the thermal stability z-score was -0.0121 with potassium arsenate, -0.402 with lipoamide (setting [1]) and -0.11 in the experiment with lipoamide (arsenate co-treatment: none).

Consider DDX59 (UniProt Q5T1V6), for which the values for the thermal stability z-score with potassium arsenate, in the experiment with lipoamide (setting [1]) and in the experiment with lipoamide (arsenate co-treatment: none) were -1.01, -0.512 and -0.363, respectively.

For TLK2 (UniProt Q86UE8), the values for the thermal stability z-score with potassium arsenate, with lipoamide (setting [1]) and in the experiment with lipoamide (arsenate co-treatment: none) were 0.502, -0.838 and 0.0336, respectively.

Turning to AKAP8 (UniProt O43823), the thermal stability z-score with potassium arsenate was -0.946; with lipoamide (setting [1]), 0.701; with lipoamide (arsenate co-treatment: none), -0.426.

As to TCOF1 (UniProt Q13428), the thermal stability z-score is 0.157 with potassium arsenate, 0.957 with lipoamide (setting [1]) and 0.648 in the experiment with lipoamide (arsenate co-treatment: none).

Consider VLDLR (UniProt P98155), for which the results for the thermal stability z-score in the experiment with potassium arsenate, in the experiment with lipoamide (setting [1]) and with lipoamide (arsenate co-treatment: none) were -0.86, -0.517 and -0.526, respectively.

On to HACL1 (UniProt Q9UJ83), for which the thermal stability z-score was 0.107 with potassium arsenate, 0.259 with lipoamide (setting [1]) and -0.331 in the experiment with lipoamide (arsenate co-treatment: none).

BTF3L4 (UniProt Q96K17): the thermal stability z-score is -0.154 with potassium arsenate, 0.212 with lipoamide (setting [1]) and 0.17 with lipoamide (arsenate co-treatment: none).

Consider PLCL2 (UniProt Q9UPR0), for which the thermal stability z-score was -0.417 with potassium arsenate, -0.2 with lipoamide (setting [1]) and -0.373 with lipoamide (arsenate co-treatment: none).

As for CDC42SE1 (UniProt Q9NRR8), the thermal stability z-score in the experiment with potassium arsenate is -0.154; in the experiment with lipoamide (setting [1]), -0.0857; with lipoamide (arsenate co-treatment: none), 0.383.

For C18ORF21 (UniProt Q32NC0), the thermal stability z-score is -2.28 with potassium arsenate, -0.42 in the experiment with lipoamide (setting [1]) and -0.189 with lipoamide (arsenate co-treatment: none).

For the target LY6K (UniProt Q17RY6), the thermal stability z-score with potassium arsenate is 2.42; in the experiment with lipoamide (setting [1]) it was -3.06; with lipoamide (arsenate co-treatment: none) it was -2.7.

In the case of BTF3 (UniProt P20290), the results for the thermal stability z-score with potassium arsenate, with lipoamide (setting [1]) and with lipoamide (arsenate co-treatment: none) were 0.076, 0.457 and 0.48, respectively.

Consider REEP3 (UniProt Q6NUK4), for which the thermal stability z-score with potassium arsenate was -0.0274; with lipoamide (setting [1]), 0.197; with lipoamide (arsenate co-treatment: none) it was -0.171.
